In patent US8859541B2, “6-alkynylpyridines” (Boehringer Ingelheim International GmbH, priority 2012, dated 2014) one finds IC50 data, which are given here for 33 compounds.

This test has as its target T1, XIAP BIR3 (Homo sapiens, UniProt P98170).
T1 construct: covering amino acids 241 to 356; XIAP BIR3; made in house; host or cells: E. coli
Briefly: XIAP BIR3 binding assay (DELFIA), displacement of SMAC peptide. As to conditions: GST-fusion BIR3 domain (aa 241 to 356) 10 nM, SMAC peptide 10 nM; activity of the (S)-isomers. The procedure:
Biological Methods XIAP BIR3 and cIAP1 BIR3 Binding Assays (DELFIA)
Peptide […]-Lys(Biotin), representing the N-terminus of mature human SMAC (SMAC peptide), was used as interaction partner in the protein-peptide interaction assay.
BIR3 domains (10 nM) were incubated with SMAC peptide (10 nM) in Assay Buffer (50 mM Tris, 120 mM NaCl, 0.1% BSA, 1 mM DTT, 0.05% TritonX100) for one hour at room temperature in the presence of inhibitiory compounds. The assay mixture was transferred to a strepatvidin coated plate and incubated for one hour at room temperature to allow binding of the biotinylated peptide and associated BIR3 domains to the plate. After several washing steps Eu labeled anti-GST antibody (e.g. Perkin Elmer DELFIA Eu-N1-antiGST AD0250) was added to detect BIR3 domain-SMAC peptide interactions according to Perkin Elmer's instructions. […] Time resolved Europium fluoresecence was measured in a Wallac Victor using Standard assay settings.
DELFIA assay results were plotted against compound concentrations and Software GraphPad Prizm was used to calculate half maximal inhibitory concentrations (IC50 values).

Structures are written as SMILES.

T1 sequence (P98170 241-356): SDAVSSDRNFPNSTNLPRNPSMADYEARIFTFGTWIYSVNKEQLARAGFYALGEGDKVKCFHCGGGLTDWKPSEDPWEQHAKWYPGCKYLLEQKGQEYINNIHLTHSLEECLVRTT

For orientation: IC50 means the concentration at which inhibition is half-maximal. As to `CC(N)C(=O)Nc1ccc(-c2ccc(-c3ccc(F)cc3)nc2)c(C#Cc2ccccc2)n1` (stereo not drawn) [Example 112, 2-amino-N-[5-[6-(4-fluorophenyl)pyridin-3-yl]-6-(2-phenylethynyl)pyridin-2-yl]-propanamide], the IC50 came out at 1070 nM.
Next, `CC(N)C(=O)Nc1ccc(-c2cccc(F)c2)c(C#Cc2ccccc2)n1` (stereo not drawn) [Example 114, 2-amino-N-[5-(3-fluorophenyl)-6-(2-phenylethynyl)pyridin-2-yl]-propanamide]: 1630 nM.
Next, `CC(N)C(=O)Nc1ccc(-c2cc(F)cc(C(F)(F)F)c2)c(C#Cc2ccccc2)n1` (stereo not drawn) [Example 115, 2-amino-N-[5-[3-fluoro-5-(trifluoromethyl)phenyl]-6-(2-phenylethynyl)pyridin-2-yl]-propanamide]: 2040 nM; `CNC(C)C(=O)Nc1ccc(-c2ccccc2Cl)c(C#Cc2ccccc2)n1` (stereo not drawn) [Example 116, N-[5-(2-chlorophenyl)-6-(2-phenylethynyl)pyridin-2-yl]-2-(methylamino)propanamide]: 1770 nM; `CNC(C)C(=O)Nc1ccc(-c2cc(C#N)ccc2Cl)c(C#Cc2ccccc2)n1` (stereo not drawn) [Example 117, N-[5-(2-chloro-5-cyanophenyl)-6-(2-phenylethynyl)pyridin-2-yl]-2-(methylamino)propanamide]: 406 nM.
For `CNC(C)C(=O)Nc1ccc(Cc2ccccc2)c(C#Cc2ccccc2)n1` (stereo not drawn) [Example 119, N-[5-benzyl-6-(2-phenylethynyl)pyridin-2-yl]-2-(methylamino)-propan-amide], the IC50 stood at 327 nM.
Under `CNC(C)C(=O)Nc1ccc(-c2cncc(C(=O)O)c2)c(C#Cc2ccccc2)n1` (stereo not drawn) [Example 120, 5-[6-[[2-(methylamino)-propanoyl]amino]-2-(2-phenyl-ethynyl)pyridin-3-yl]pyridine-3-carboxylic acid] stands 185 nM; under `CCc1ccccc1-c1ccc(NC(=O)C(C)NC)nc1C#Cc1ccccc1` (stereo not drawn) [Example 124, N-[5-(2-ethylphenyl)-6-(2-phenyl-ethynyl)pyridin-2-yl]-2-(methyl-amino)propanamide], 2840 nM.
Next, `CNC(C)C(=O)Nc1ccc(-c2cncc(N)c2)c(C#Cc2ccccc2)n1` (stereo not drawn) [Example 128, N-[5-(5-aminopyridin-3-yl)-6-(2-phenylethynyl)pyridin-2-yl]-2-(methylamino)propanamide]: 101 nM.
In the case of `CNC(C)C(=O)Nc1ccc(-c2cc(C(=O)OC)ccc2OC)c(C#Cc2ccccc2)n1` (stereo not drawn) [Example 131, methyl 4-methoxy-3-[6-[[2-(methylamino)propanoyl]amino]-2-(2-phenylethynyl)pyridin-3-yl]-benzoate], the IC50 is 305 nM.
With `CNC(C)C(=O)Nc1ccc(-c2cc(C(=O)OC)cc([N+](=O)[O-])c2)c(C#Cc2ccccc2)n1` (stereo not drawn) [Example 133, methyl 3-[6-[[2-(methylamino)-propanoyl]amino]-2-(2-phenyl-ethynyl)pyridin-3-yl]-5-nitrobenzoate], the IC50 was found to be 142 nM.
Next, `CNC(C)C(=O)Nc1ccc(-c2ccc(C)c(C(=O)OC)c2)c(C#Cc2ccccc2)n1` (stereo not drawn) [Example 134, methyl 2-methyl-5-[6-[[2-(methylamino)propanoyl]amino]-2-(2-phenylethynyl)pyridin-3-yl]-benzoate]: 581 nM; `CC(N)C(=O)Nc1ccc(-c2cccc3cccnc23)c(C#Cc2ccccc2)n1` (stereo not drawn) [Example 135, 2-amino-N-[6-(2-phenylethynyl)-5-quinolin-8-ylpyridin-2-yl]-propanamide]: 490 nM; `CNC(C)C(=O)Nc1ccc(-c2sc(-c3ccccc3)nc2C)c(C#Cc2ccccc2)n1` (stereo not drawn) [Example 136, 2-(methylamino)-N-[5-(4-methyl-2-phenyl-1,3-thiazol-5-yl)-6-(2-phenylethynyl)pyridin-2-yl]-propanamide]: 1040 nM.
On to `CNC(C)C(=O)Nc1ccc(-c2cccc3[nH]ncc23)c(C#Cc2ccccc2)n1` (stereo not drawn) [Example 137, N-[5-(1H-indazol-4-yl)-6-(2-phenylethynyl)pyridin-2-yl]-2-(methylamino)propanamide], for which the IC50 is 155 nM.
Under `CNC(C)C(=O)Nc1ccc(-c2cccc(F)c2F)c(C#Cc2ccccc2)n1` (stereo not drawn) [Example 139, N-[5-(2,3-difluorophenyl)-6-(2-phenylethynyl)pyridin-2-yl]-2-(methylamino)propanamide] stands 1410 nM.
Next, `CNC(C)C(=O)Nc1ccc(-c2cccc(C(F)(F)F)c2OC)c(C#Cc2ccccc2)n1` (stereo not drawn) [Example 140, N-[5-[2-methoxy-3-(trifluoromethyl)phenyl]-6-(2-phenylethynyl)pyridin-2-yl]-2-(methylamino)propanamide]: 1990 nM; `CNC(C)C(=O)Nc1ccc(-c2cccc(C(=O)O)c2OC)c(C#Cc2ccccc2)n1` (stereo not drawn) [Example 141]: 558 nM; `CNC(C)C(=O)Nc1ccc(-c2cccc3c2ccn3C)c(C#Cc2ccccc2)n1` (stereo not drawn) [Example 142, 2-(methylamino)-N-[5-(1-methylindol-4-yl)-6-(2-phenyl-ethynyl)pyridin-2-yl]propanamide]: 503 nM.
Next, `CNC(C)C(=O)Nc1ccc(-c2cccc3ncccc23)c(C#Cc2ccc(C)cc2)n1` (stereo not drawn) [Example 143, 2-(methylamino)-N-[6-[2-(4-methylphenyl)ethynyl]-5-quinolin-5-ylpyridin-2-yl]propan-amide]: 388 nM; `CNC(C)C(=O)Nc1ccc(-c2cccc3cnccc23)c(C#Cc2ccc(C)cc2)n1` (stereo not drawn) [Example 144, N-[5-isoquinolin-5-yl-6-[2-(4-methylphenyl)ethynyl]pyridin-2-yl]-2-(methylamino)propanamide]: 400 nM.
On to `CNC(C)C(=O)Nc1ccc(-c2ccc(F)nc2)c(C#Cc2ccccc2)n1` (stereo not drawn) [Example 146, N-[5-(6-fluoropyridin-3-yl)-6-(2-phenylethynyl)pyridin-2-yl]-2-(methylamino)propanamide], for which the IC50 came out at 257 nM.
Under `CNC(C)C(=O)Nc1ccc(-c2cnccc2C#N)c(C#Cc2ccc(C)cc2)n1` (stereo not drawn) [Example 148, N-[5-(4-cyanopyridin-3-yl)-6-[2-(4-methylphenyl)ethynyl]pyridin-2-yl]-2-(methylamino)propan-amide] stands 416 nM; under `CNC(C)C(=O)Nc1ccc(-c2cccc(-c3ccccc3)c2)c(C#Cc2ccccc2)n1` (stereo not drawn) [Example 150, 2-(methylamino)-N-[6-(2-phenyl-ethynyl)-5-(3-phenylphenyl)-pyridin-2-yl]propanamide], 2450 nM.
Compound `CNC(C)C(=O)Nc1ccc(-c2ccc(C(=O)OC)nc2)c(C#Cc2cc(F)cc(F)c2)n1` (stereo not drawn) [Example 151, methyl 5-[2-[2-(3,5-difluorophenyl)ethynyl]-6-[[2-(methylamino)propanoyl]amino]-pyridin-3-yl]pyridine-2-carboxylate] registered an IC50 of 326 nM.
In turn, `CNC(C)C(=O)Nc1ccc(-c2ccnc3ccccc23)c(C#Cc2cc(F)cc(F)c2)n1` (stereo not drawn) [Example 152, N-[6-[2-(3,5-difluorophenyl)-ethynyl]-5-quinolin-4-ylpyridin-2-yl]-2-(methylamino)propanamide] registered an IC50 of 431 nM.
Under `CNC(C)C(=O)Nc1ccc(-c2cnccc2OC)c(C#Cc2ccc3cnccc3c2)n1` (stereo not drawn) [Example 153, N-[6-(2-isoquinolin-6-ylethynyl)-5-(4-methoxypyridin-3-yl)-pyridin-2-yl]-2-(methylamino)-propanamide] stands 1240 nM.
Next, `CNC(C)C(=O)Nc1ccc(-c2cnccc2OC)c(C#Cc2ccc3ccccc3c2)n1` (stereo not drawn) [Example 154, N-[5-(4-methoxypyridin-3-yl)-6-(2-naphthalen-2-ylethynyl)-pyridin-2-yl]-2-(methylamino)-propanamide]: 569 nM; `CNC(C)C(=O)Nc1ccc(-c2cnc(N3CCCC3)nc2)c(C#Cc2ccc3ccccc3c2)n1` (stereo not drawn) [Example 155, 2-(methylamino)-N-[6-(2-naphthalen-2-ylethynyl)-5-(2-pyrrolidin-1-ylpyrimidin-5-yl)-pyridin-2-yl]propanamide]: 284 nM; `CNC(C)C(=O)Nc1ccc(-c2c(-c3ccccc3)noc2C)c(C#Cc2ccc3ccccc3c2)n1` (stereo not drawn) [Example 156, 2-(methylamino)-N-[5-(5-methyl-3-phenyl-1,2-oxazol-4-yl)-6-(2-naphthalen-2-ylethynyl)pyridin-2-yl]propanamide]: 3180 nM.
Take `CNc1ncc(-c2ccc(NC(=O)C(C)NC)nc2C#Cc2ccc3ccccc3c2)cn1` (stereo not drawn) [Example 157, 2-(methylamino)-N-[5-[2-(methylamino)pyrimidin-5-yl]-6-(2-naphthalen-2-ylethynyl)-pyridin-2-yl]propanamide]: the half-maximal inhibitory concentration (IC50) was 276 nM.
In the case of `CNC(C)C(=O)Nc1ccc(-c2cnc(SC)nc2)c(C#Cc2ccc3ccccc3c2)n1` (stereo not drawn) [Example 158, 2-(methylamino)-N-[5-(2-methylsulfanylpyrimidin-5-yl)-6-(2-naphthalen-2-ylethynyl)-pyridin-2-yl]propanamide], the IC50 is 772 nM.
Under `CNC(C)C(=O)Nc1ccc(-c2cncnc2C(C)C)c(C#Cc2ccc3ccccc3c2)n1` (stereo not drawn) [Example 159, 2-(methylamino)-N-[6-(2-naphthalen-2-ylethynyl)-5-(4-propan-2-ylpyrimidin-5-yl)-pyridin-2-yl]propanamide] stands 767 nM.
